Assay results: paper PMC6361113 (Cancer chemotherapy and pharmacology, 2017)
Several values for one entry are separate records, joined by “and”; a condition that tells them apart may be missing. Equal values may be shown once. Read-outs that look alike come from different tables or passages of the source. Each block holds one compound with its values, some of them ahead of it.

How the values were obtained:
[1] = cited from earlier work
[2] = cited from earlier work; remark: listed apart in the source
[3] = tested on: blood/PMBCs; conditions: in vitro; cited from earlier work
[4] = cited from earlier work; remark: listed apart in the source
[5] = olaparib tablets 200 mg, noncompartmental; cited from earlier work
[6] = Population pharmacokinetic; assay type: in vivo, human
[7] = cited from earlier work; remark: listed apart in the source
[8] = cited from earlier work; remark: listed apart in the source
[9] = cited from earlier work; remark: listed apart in the source
[10] = assay type: in vivo, human
[11] = n = 4, ref unpublished findings from the drug sponsor (NCT00516724)
[12] = ref unpublished findings from the drug sponsor
[13] = final population PK model, inter-individual variability
[14] = 400 mg capsule dose, estimated range
[15] = 400 mg capsule dose, typical averages
[16] = patients with CLcr = 50–80 mL/min, prescribing information
[17] = prescribing information, 400 mg BID capsules
[18] = olaparib monotherapy, clinical trials
[19] = this study, carboplatin pre-treatment

SMILES: N.N.O=C([O-])C1(C(=O)[O-])CCC1.[Pt+2] [carboplatin]
terminal plasma half-life [1]: 2 to 3 h | plasma protein binding ([1]; human, in vivo): not plasma protein bound | dose excreted within 12 h ([1]; patients with normal renal function (CLcr > 60 mL/min)): 65%

IIV CL/F bootstrap estimate (%RSE) ([6]; bootstrap, 1000 replicates): 57.0% (7.06%) %CV | IIV Tlag bootstrap estimate (%RSE) ([6]; bootstrap, 1000 replicates): 70.7% (19.6%) %CV | IIV V/F bootstrap estimate (%RSE) ([6]; bootstrap, 1000 replicates): 38.4% (9.78%) %CV | BSV on the CL/F parameter explained by carboplatin covariate ([6]; final covariate model): ~2% | IIV CL/F point estimate (%RSE) ([6]; final population PK model, inter-individual (between-subject) variability): 55.0% (7.98%) %CV | IIV Tlag point estimate (%RSE) [6, 13]: 87.1% (13.5%) %CV | IIV V/F point estimate (%RSE) [6, 13]: 37.3% (9.23%) %CV | change in volume of distribution relative to carboplatin pretreatment ([6]; in vivo): No change in volume of distribution | correlation (r) of creatinine clearance with olaparib clearance ([6]; population model): < 0.005 | half-life ([10]; human, plasma, oral, 200 mg): ~3 h | V/F, first 200 mg dose of olaparib alone ([10]; this study, Group A C1D1, before carboplatin): 31.1 L | decrease in olaparib AUCLAST in presence of carboplatin [10, 19]: 1.3 fold | decrease in olaparib CMAX in presence of carboplatin [10, 19]: 1.2 fold
SMILES: O=C(c1cc(Cc2n[nH]c(=O)c3ccccc23)ccc1F)N1CCN(C(=O)C2CC2)CC1 [olaparib]
lower olaparib CMAX with carboplatin pre-exposure [2, 11]: 14.8% | lower steady state olaparib AUC with carboplatin pre-exposure [2, 11]: 11.0% | lower olaparib AUC with carboplatin pre-exposure [2, 12]: 14% | lower olaparib CMAX with carboplatin pre-exposure [2, 12]: 17% | intracellular olaparib when blood/PMBCs were pretreated with carboplatin [3]: greater intracellular olaparib | CL/F point estimate, previous population PK model ([4]; 100 mg olaparib tablets BID with cisplatin and gemcitabine, 23 advanced cancer patients): 6.48 L/h and 6.5 L/h | V/F point estimate, previous population PK model ([4]; 100 mg olaparib tablets BID with cisplatin and gemcitabine, 23 patients): 38.7 L | half-life of first dose olaparib, previous population PK model ([4]; 100 mg olaparib tablets BID with cisplatin and gemcitabine): 4 h | absorption rate (Ka), previous population PK model ([4]; single compartment absorption model): 2 h⁻¹ | CL/F NCA estimate [5]: 6.08 L/h | change in olaparib plasma protein binding by carboplatin [7]: no change in olaparib plasma protein binding | clearance [8, 14]: 7.0 to 10.8 L/h | volume of distribution [8, 14]: 107 to 210 L | AUC [8, 15]: 10000 to 70000 ng·h/mL | CMax [8, 15]: 1 to 6.4 µg/mL | CL/F, other literature value [8]: 4.6 L/h | V/F, other literature value [8]: 40.3 L | half-life ([8]; elimination rate calculated over a 72-h period): 12 h | increase in olaparib AUC in mild renal impairment [8, 16]: 1.2 fold | increase in olaparib CMAX in mild renal impairment [8, 16]: 1.5 fold | apparent plasma CL/F [8, 17]: 8.6 (±7.1) L/h | apparent volume of distribution at steady-state (Vss/F) [8, 17]: 167 (±196) L | AUC mean ([8]; tablet dose of 200 mg): 43000 ng·h/mL | CL/F mean ([8]; tablet dose of 200 mg): 7.95 L/h | CMAX mean ([8]; tablet dose of 200 mg): 7 µg/mL | V/F mean ([8]; tablet dose of 200 mg): 146 L | patients having hematologic toxicity ([9]; olaparib capsules combined with carboplatin, likely due to carboplatin): 82% | grade 1–2 fatigue [9, 18]: ~30% | grade 1–2 nausea [9, 18]: ~32% | grade 1–2 vomiting [9, 18]: ~20%
